# From patent US6103724A, “2-methoxyphenylpiperazine derivatives” (Richter Gedeon Vegyeszeti Gyar Rt., priority 1996, dated 2000)
# Counter-ions that a name gives are not always drawn.
# Legend:
# [1] = target: T1, 5-HT1A subtype of serotonin receptor (Rattus norvegicus, UniProt P19327); experiment: biochemical; type: binding; settings: for IC50: 0.5 nM 3H-8-OH-DPAT; for D-2/5-HT1A ratio: ratio of receptor IC50 values
# T1 sequence (P19327 1-422): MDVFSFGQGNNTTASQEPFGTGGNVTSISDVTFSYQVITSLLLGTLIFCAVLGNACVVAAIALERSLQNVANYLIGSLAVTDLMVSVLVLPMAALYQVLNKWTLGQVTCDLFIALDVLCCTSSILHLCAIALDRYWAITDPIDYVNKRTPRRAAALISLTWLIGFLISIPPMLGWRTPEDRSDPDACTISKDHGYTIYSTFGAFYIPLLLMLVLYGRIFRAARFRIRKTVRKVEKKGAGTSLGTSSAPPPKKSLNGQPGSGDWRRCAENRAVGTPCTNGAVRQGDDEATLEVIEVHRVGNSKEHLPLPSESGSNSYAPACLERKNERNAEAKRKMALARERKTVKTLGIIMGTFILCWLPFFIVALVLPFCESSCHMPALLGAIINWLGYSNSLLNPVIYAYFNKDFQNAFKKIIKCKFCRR
# Experimental: Determination of the 5-HT1A subtype of serotonin receptor was carried out by a modification [M. D. Hall et al.: J. Neurochem. […] 0.5 nM ^3 H-8-OH-DPAT was used as ligand, where non-specific binding was determined by using 10 μM serotonin.
# α-1 receptor = experiment: Alpha-1 receptor binding (3H-prazosin)
# Experimental: The non-specific binding was measured with 10 μM (±)-phentolamine.
# APO-induced sniffing = experiment: Inhibition of APO-induced sniffing stereotypy; type: in vivo, CD-1 (Charles River) male mice; settings: for ED50: Mus musculus, po, mice, 1 mg/kg s.c. apomorphine 60 min after pretreatment; for Sniff./Climb. ratio: ratio of ED50 sniffing to ED50 climbing, p.o.
# APO-induced climbing = experiment: Inhibition of apomorphine (APO) induced climbing; type: in vivo, CD-1 (Charles River) male mice; settings: for ED50: Mus musculus, po, mice, 1 mg/kg s.c. apomorphine 60 min after pretreatment
# Experimental: CD-1 (Charles River) male mice weighing 22 to 24 g were pretreated with 1% Tween 80 solution of the compound to be tested. […] Six animals were used in each group. At 60 minutes after pretreatment, the animals were treated subcutaneously with 1 mg/kg of apomorphine (APO). From the 10th to 25th minute following APO treatment the animals were scored in each minute as follows: 0: all the four legs of the animal are on the ground; 1: the animal climbs on the grid by its both forelegs; 2: the animal climbs on the grid by all its four legs. The inhibitory effect was related to the APO control group, which could achieve 32 scores as a maximum.
# D-2 dopamine receptor = D-2 dopamine receptor (Homo sapiens, UniProt P14416); experiment: biochemical; type: binding; settings: 0.5 nM 3H-spiperone
# D-2 dopamine receptor, sequence (P14416 whole entry): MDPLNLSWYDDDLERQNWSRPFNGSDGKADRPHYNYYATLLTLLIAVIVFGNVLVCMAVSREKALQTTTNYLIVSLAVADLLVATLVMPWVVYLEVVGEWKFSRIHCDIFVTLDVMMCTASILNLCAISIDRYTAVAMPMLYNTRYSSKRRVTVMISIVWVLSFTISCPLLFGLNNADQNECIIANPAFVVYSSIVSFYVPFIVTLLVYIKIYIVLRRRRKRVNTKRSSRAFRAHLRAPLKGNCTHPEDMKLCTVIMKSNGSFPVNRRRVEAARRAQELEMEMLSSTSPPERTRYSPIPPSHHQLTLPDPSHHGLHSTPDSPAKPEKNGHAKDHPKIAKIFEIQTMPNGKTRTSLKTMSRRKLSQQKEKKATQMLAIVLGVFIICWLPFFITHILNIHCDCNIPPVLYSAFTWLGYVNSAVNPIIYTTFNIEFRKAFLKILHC
SMILES,IC50 [1] [nM],IC50 (α-1 receptor) [nM],ED50 (APO-induced sniffing) [mg/kg],Sniff./Climb. ratio (APO-induced sniffing),ED50 (APO-induced climbing) [mg/kg],IC50 (D-2 dopamine receptor) [nM],"ED50 values (climbing) compared with clozapine, in words (APO-induced climbing; oral, relative to clozapine)",D-2/5-HT1A ratio [1],"oral activity as compared to clozapine (APO-induced climbing; oral, relative to clozapine)","activity on 5-HT1A receptor subtypes, in words [1]"
"COc1ccccc1N1CCN(CCCOc2ccc(-c3cn4ccccc4n3)cc2)CC1 [Compound 4510067, 1-(2-Methoxyphenyl)-4-{3-[4-(2-imidazo[1,2-a]pyridinyl)phenoxy]propyl}piperazine]",202,57,16.2,2.3,7.2,17,–,–,–,–
"COc1ccccc1N1CCN(CCOc2ccc(-c3cc4ccccn4c3)cc2)CC1.Cl.Cl [Compound 4510407, 1-(2-Methoxyphenyl)-4-{2-[4-(2-indolizinyl)phenoxy]ethyl}piperazine dihydrochloride]",802,542,–,–,> 30,258,–,–,–,–
"COc1ccccc1N1CCN(CCOc2ccc(-c3cn4ccccc4n3)cc2)CC1 [Compound 4510408, 1-(2-Methoxyphenyl)-4-{2-[4-(2-imidazo[1,2-a]pyridinyl)phenoxy]ethyl}piperazine]",70,36,~10,4.1,2.4,56,lower than or equal to that of clozapine,–,–,–
"COc1ccccc1N1CCN(CCOc2ccc(-c3cn4cccnc4n3)cc2)CC1 [Compound 4510411, 1-(2-Methoxyphenyl)-4-{2-[4-(2-imidazo[1,2-a]pyrimidinyl)phenoxy]ethyl}piperazine]",10,63,> 30,> 8.8,3.4,133,lower than or equal to that of clozapine,–,–,–
"COc1ccccc1N1CCN(CCCOc2ccc(-c3cc4ccccn4c3)cc2)CC1.Cl.Cl [Compound 4510423, 1-(2-Methoxyphenyl)-4-{3-[4-[2-indolizinyl)phenoxy]propyl}piperazine dihydrochloride]",1000,359,> 10,> 2.4,4.1,77,–,–,–,–
"COc1ccccc1N1CCN(CCCOc2ccc(-c3cn4cccnc4n3)cc2)CC1 [Compound 4510424, 1-(2-Methoxyphenyl)-4-{3-[4-(2-imidazo[1,2-a]pyrimidinyl)phenoxy]propyl}piperazine]",66,30,> 30,3.4,8.9,34,–,–,–,–
"COc1ccccc1N1CCN(CCOc2ccc(-c3cn4ccsc4n3)cc2)CC1.Cl.Cl.Cl [Compound 4510470, 1-(2-Methoxyphenyl)-4-{2-[4-[6-imidazo[2,1-b]thiazolyl]phenoxy]ethyl}piperazine trihydrochloride]",38,101,4.5,5.6,0.8,73,–,1.9,ten-fold,–
"COc1ccccc1N1CCN(CCOc2ccc(-c3cn4c(n3)SCC4)cc2)CC1 [Compound 4510471, 1-(2-Methoxyphenyl)-4-{2-[4-[6-(2,3-dihydroimidazo[2,1-b]thiazol)-yl]phenoxy]ethyl}piperazine trihydrochloride]",29,75,> 30,4.8,6.3,117,–,–,–,–
"COc1ccccc1N1CCN(CCCOc2ccc(-c3cn4ccsc4n3)cc2)CC1 [Compound 4510472, 1-(2-Methoxyphenyl)-4-{3-[4-[6-imidazo[2,1-b]thiazolyl)phenoxy]propyl}piperazine]",96,56,~10,2.9,3.4,23,lower than or equal to that of clozapine,–,–,–
"COc1ccccc1N1CCN(CCCOc2ccc(-c3cn4c(n3)SCC4)cc2)CC1 [Compound 4510473, 1-(2-Methoxyphenyl)-4-{3-[4-[6-(2,3-dihydroimidazo[2,1-b]thiazol)yl]phenoxy]jpropyl}piperazine]",122,48,> 30,> 2.0,15.3,29,–,–,–,–
"COc1ccccc1N1CCN(CCCCOc2ccc(-c3cc4ccccn4c3)cc2)CC1 [Compound 4510613, 1-(2-Methoxyphenyl)-4-{4-[4-(2-indolizinyl)phenoxy]butyl}piperazine]",243,842,> 30,> 2.0,14.8,99,–,–,–,–
"COc1ccccc1N1CCN(CCCCOc2ccc(-c3cn4cccnc4n3)cc2)CC1 [Compound 4510645, 1-(2-Methoxyphenyl)-4-{4-[4-(2-imidazo[1,2-a]pyrimidinyl)phenoxy]butyl}piperazine]",12,22,> 30,> 1.5,20.5,55,–,–,–,–
"COc1ccccc1N1CCN(CCCCOc2ccc(-c3cn4ccccc4n3)cc2)CC1 [Compound 4510915, 1-(2-Methoxyphenyl)-4-{4-[4-(2-imidazo[1,2-a]pyridinyl)phenoxy]butyl}piperazine]",21,34,–,–,10.7,69,–,–,–,–
"COc1ccccc1N1CCN(CCCCOc2ccc(-c3cn4ccsc4n3)cc2)CC1.Cl.Cl.Cl [Compound 4510916, 1-(2-Methoxyphenyl)4-{4-[4-[6-imidazo[2,1-b]thiazolyl]phenoxy]butyl}piperazine trihydrochloride]",8,28,~30,> 4.9,6.1,55,–,6.9,–,especially strong activity
"COc1ccccc1N1CCN(CCCCOc2ccc(-c3cn4c(n3)SCC4)cc2)CC1 [Compound 4510991, 1-(2-Methoxyphenyl)-4-{4-[4-[6-(2,3-dihydroimidazo[2,1-b]thiazol)-yl]phenoxy]butyl}piperazine]",9,16,> 30,> 1.0,~30,56,–,–,–,especially strong activity
